What was measured:
[1] = tested on: tissue plasminogen activator (t-PA) release from HUVEC; assay: t-PA release from HUVEC (ELISA); type: cell-based, human; details: 24 h, HUVEC supernatants
Experimental: The influence on tissue plasminogen activator release from HUVECs was assessed using an ELISA kit (Abcam, Cambridge, UK). HUVECs seeded at a density of 10,000 per well on 96-well plates were co-incubated with compounds 1–5 at the concentrations of 0.3 and 1.0 mM for an additional 24 h (37 °C, 5% CO2). The cell supernatants were discarded into Eppendorf tubes and preserved at −20° C until analysis. Before the tests, the samples were thawed at room temperature for 15 min, and diluted 2.5-fold with diluent in Elisa kit. The measurements of t-PA concentrations in cell supernatants were conducted according to the manufacturer’s protocol using 3,3’,5,5’-tetramethylbenzidine (TMB) as a chromogenic substrate. The concentration of t-PA in HUVEC supernatants was determined using a calibration curve (R^2 = 0.9936). The results are presented as mean ± SD, n = 6. The CV for the applied method was 7.21%.

HUVEC cells = assay: HUVEC integrity in RTCA-DP system (normalized cell index); type: cell-based, human
Experimental: The effects of sulfonamides 1–8 on the integrity and barrier properties of HUVEC were examined in real-time using a cell electric impedance monitoring system (Real-Time Cell Analyzer; Roche & ACEA Biosciences, Santa Clara, CA, USA), which is based on tracking electrical impedance signals. Any changes in cell status, adhesion, and morphology are expressed by parameter Cell Index (CI). The experimental protocol has been described previously. Briefly, the cells were seeded at a density of 15,000 cells per well on E-16 plates (Roche & ACEA Biosciences, Santa Clara, CA, USA), and cultured until the cells achieved plateau phase. Then, the medium was discarded from each well, and the solutions of the test compounds dissolved in cell culturing medium (100 μL) or pure medium (100 μL, control) were added. The measurements were then carried out for 48 h. The results are presented as mean ± SD of ‘normalized cell index’ (nCI), which is calculated by the division of a CI value at a certain time point by the CI value at a reference time point. The experiments were conducted in multiplicate (n = 4–6). The method was validated and the coefficient of variability (CV) was calculated as 9.17%–15.2%, depending on the measured time point (n = 6).

[2] = tested on: clot formation and fibrinolysis in human citrate plasma; assay: Clot formation and fibrinolysis test (CL-test); type: biochemical
Experimental: The effects of the […] on overall hemostasis potential by means of clot formation and fibrinolysis test (CL-test) were further tested based on the continuous measurement of the changes in optical transmittance over time, as described by Kostka et al. and Sikora et al.. These experiments were conducted using 470 µL of three-fold diluted human citrate plasma, 10 µL of the tested compounds, and 10 µL t-PA (final concentration in a sample 220 ng/mL). The clot formation was triggered by thrombin (10 µL, final concentration 0.5 IU/mL). The clot formation and lysis curves were determined at a wavelength of 405 nm with a spectrophotometer (Cecil CE 2021; London, UK) with circulating thermostated water (37 °C) and a Model 300 Electronic Stirrer (Rank Brothers Ltd., Cambridge, UK). The experiments were conducted in multiplicate (n = 5–7), and the results are presented as mean ± SD.
The received graphs were analyzed using dedicated software to determine the kinetic parameters of clot formation, stabilization, and fibrinolysis. The following parameters of clot formation were determined: Tt—thrombin time (s), Fmax—maximum clotting (%T), Tf—plasma clotting time (s), Fvo—initial plasma clotting velocity (%T/min), Sr—area under the clot formation curve (%Txmin). The parameters of the clot stabilization phase comprised Tc—clot stabilization time (s), Sc—area under the curve of stable clot formation (%Txmin). The parameters of fibrinolysis comprised Lmax—maximum lysis (%T), Tl—fibrinolysis time (s), Lvo—initial clot fibrinolysis velocity (%T/min), Sf—area under the fibrinolysis curve (%Txmin). Additionally, the overall potential of clot formation and fibrinolysis (CLAUC, (%Txmin)) and total time of the process of clot formation and fibrinolysis (T, (s)) were also estimated.

CCCCCCCCS(=O)(=O)NC(N)=NC(=N)N(C)C [Compound 2]
Released t-PA ([1]; 0.3 mM): 1633.9 ± 263.2 pg/mL | Released t-PA ([1]; 1.0 mM): 990.0 ± 158.5 pg/mL | normalized Cell Index (nCI) (HUVEC cells; 0.3 mM, 3 hours): 0.608 ± 0.038 | normalized Cell Index (nCI) (HUVEC cells; 0.3 mM, 6 hours): 0.693 ± 0.022 | normalized Cell Index (nCI) (HUVEC cells; 0.3 mM, 12 hours): 0.676 ± 0.047 | normalized Cell Index (nCI) (HUVEC cells; 0.3 mM, 24 hours): 0.522 ± 0.030 | normalized Cell Index (nCI) (HUVEC cells; 0.3 mM, 36 hours): 0.761 ± 0.008 | normalized Cell Index (nCI) (HUVEC cells; 1.0 mM, 3 hours): 0.652 ± 0.006 | normalized Cell Index (nCI) (HUVEC cells; 1.0 mM, 6 hours): 0.706 ± 0.007 | normalized Cell Index (nCI) (HUVEC cells; 1.0 mM, 12 hours): 0.719 ± 0.005 | normalized Cell Index (nCI) (HUVEC cells; 1.0 mM, 24 hours): 0.731 ± 0.002 | normalized Cell Index (nCI) (HUVEC cells; 1.0 mM, 36 hours): 0.379 ± 0.032 | Fmax—maximum clotting ([2]; 0.06 mM): 66.77 ± 5.68 %T | Fvo—initial plasma clotting velocity ([2]; 0.06 mM): 203.43 ± 22.00 %T/min | Lmax—maximum lysis ([2]; 0.06 mM): 67.40 ± 5.38 %T | Lvo—initial clot fibrinolysis velocity ([2]; 0.06 mM): 22.29 ± 4.30 %T/min | Sc—area under the curve of a stable clot formation ([2]; 0.06 mM): 323.20 ± 94.05 %T x min | Sf—area under the clot formation curve ([2]; 0.06 mM): 44.40 ± 9.07 %T x min | Sl (area under the fibrinolysis curve) ([2]; 0.06 mM): 148.45 ± 47.41 %T x min | S—overall potential of clot formation and fibrinolysis (CLAUC) ([2]; 0.06 mM): 516.05 ± 146.55 %T x min | Tc—clot stabilization time ([2]; 0.06 mM): 296.57 ± 72.31 s | Tf—plasma clotting time ([2]; 0.06 mM): 56.56 ± 8.57 s | Tl—fibrinolysis time ([2]; 0.06 mM): 240.14 ± 65.11 s | Tt—thrombin time ([2]; 0.06 mM): 16.86 ± 4.24 s | T—total time of the process of clot formation and fibrinolysis ([2]; 0.06 mM): 610.13 ± 145.50 s | Fmax—maximum clotting ([2]; 0.3 mM): 68.99 ± 5.55 %T | Fvo—initial plasma clotting velocity ([2]; 0.3 mM): 194.00 ± 48.64 %T/min | Lmax—maximum lysis ([2]; 0.3 mM): 69.49 ± 5.34 %T | Lvo—initial clot fibrinolysis velocity ([2]; 0.3 mM): 19.83 ± 6.57 %T/min | Sc—area under the curve of a stable clot formation ([2]; 0.3 mM): 344.01 ± 74.34 %T x min | Sf—area under the clot formation curve ([2]; 0.3 mM): 46.00 ± 9.83 %T x min | Sl (area under the fibrinolysis curve) ([2]; 0.3 mM): 153.63 ± 43.80 %T x min | S—overall potential of clot formation and fibrinolysis (CLAUC) ([2]; 0.3 mM): 543.64 ± 122.37 %T x min | Tc—clot stabilization time ([2]; 0.3 mM): 309.14 ± 68.74 s | Tf—plasma clotting time ([2]; 0.3 mM): 59.24 ± 16.26 s | Tl—fibrinolysis time ([2]; 0.3 mM): 252.00 ± 73.00 s | Tt—thrombin time ([2]; 0.3 mM): 17.54 ± 5.79 s | T—total time of the process of clot formation and fibrinolysis ([2]; 0.3 mM): 637.93 ± 155.22 s | Fmax—maximum clotting ([2]; 0.6 mM): 67.40 ± 9.57 %T | Fvo—initial plasma clotting velocity ([2]; 0.6 mM): 214.14 ± 50.85 %T/min | Lmax—maximum lysis ([2]; 0.6 mM): 68.19 ± 9.82 %T | Lvo—initial clot fibrinolysis velocity ([2]; 0.6 mM): 20.37 ± 7.03 %T/min | Sc—area under the curve of a stable clot formation ([2]; 0.6 mM): 344.82 ± 65.62 %T x min | Sf—area under the clot formation curve ([2]; 0.6 mM): 44.34 ± 10.50 %T x min | Sl (area under the fibrinolysis curve) ([2]; 0.6 mM): 143.77 ± 40.07 %T x min | S—overall potential of clot formation and fibrinolysis (CLAUC) ([2]; 0.6 mM): 532.93 ± 111.10 %T x min | Tc—clot stabilization time ([2]; 0.6 mM): 319.00 ± 63.63 s | Tf—plasma clotting time ([2]; 0.6 mM): 55.80 ± 11.60 s | Tl—fibrinolysis time ([2]; 0.6 mM): 247.43 ± 74.21 s | Tt—thrombin time ([2]; 0.6 mM): 17.57 ± 3.74 s | T—total time of the process of clot formation and fibrinolysis ([2]; 0.6 mM): 639.80 ± 148.09 s | Fmax—maximum clotting ([2]; 1.5 mM): 61.57 ± 7.24 %T | Fvo—initial plasma clotting velocity ([2]; 1.5 mM): 177.43 ± 34.91 %T/min | Lmax—maximum lysis ([2]; 1.5 mM): 62.14 ± 6.63 %T | Lvo—initial clot fibrinolysis velocity ([2]; 1.5 mM): 20.07 ± 6.59 %T/min | Sc—area under the curve of a stable clot formation ([2]; 1.5 mM): 346.35 ± 92.32 %T x min | Sf—area under the clot formation curve ([2]; 1.5 mM): 44.31 ± 12.08 %T x min | Sl (area under the fibrinolysis curve) ([2]; 1.5 mM): 133.78 ± 47.19 %T x min | S—overall potential of clot formation and fibrinolysis (CLAUC) ([2]; 1.5 mM): 524.43 ± 146.77 %T x min | Tc—clot stabilization time ([2]; 1.5 mM): 351.43 ± 96.53 s | Tf—plasma clotting time ([2]; 1.5 mM): 61.21 ± 14.65 s | Tl—fibrinolysis time ([2]; 1.5 mM): 249.14 ± 80.94 s | Tt—thrombin time ([2]; 1.5 mM): 24.37 ± 7.41 s | T—total time of the process of clot formation and fibrinolysis ([2]; 1.5 mM): 686.16 ± 190.86 s
